The supplement of paper PMC11451515

Tested on: NOMO1
Experiment: cell viability relative to DMSO control; higher = less cytotoxic
Conditions: 48 h
How it was run: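 Library compounds in DMSO were pin-dosed into 1536-well plates (5 μl) holding NOMO1 or SEM (500 cells/well) or P12-Ichikawa (1000 cells/well) leukemia cells, across an 11-point threefold series of 47 μM to 0.79 nM. Each cell line had been adapted for at least four passages in each medium. CellTiter-Glo One luminescence was read after 48 h at 37°C. Viability is the per-plate percentage relative to DMSO wells, with cell-free wells as background.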

[1] = HPLM + 10% dialyzed FBS, 0.000781 µM
[2] = HPLM + 10% dialyzed FBS, 0.00234 µM
[3] = HPLM + 10% dialyzed FBS, 0.00702 µM
[4] = HPLM + 10% dialyzed FBS, 0.0211 µM
[5] = HPLM + 10% dialyzed FBS, 0.0632 µM
[6] = HPLM + 10% dialyzed FBS, 0.19 µM
[7] = HPLM + 10% dialyzed FBS, 0.569 µM
[8] = HPLM + 10% dialyzed FBS, 1.71 µM
[9] = HPLM + 10% dialyzed FBS, 5.12 µM
[10] = HPLM + 10% dialyzed FBS, 15.4 µM
[11] = HPLM + 10% dialyzed FBS, 46.1 µM
[12] = RPMI 5 mM glucose + 10% FBS, 0.000781 µM
[13] = RPMI 5 mM glucose + 10% FBS, 0.00234 µM
[14] = RPMI 5 mM glucose + 10% FBS, 0.00702 µM
[15] = RPMI 5 mM glucose + 10% FBS, 0.0211 µM
[16] = RPMI 5 mM glucose + 10% FBS, 0.0632 µM
[17] = RPMI 5 mM glucose + 10% FBS, 0.19 µM
[18] = RPMI 5 mM glucose + 10% FBS, 0.569 µM
[19] = RPMI 5 mM glucose + 10% FBS, 1.71 µM
[20] = RPMI 5 mM glucose + 10% FBS, 5.12 µM
[21] = RPMI 5 mM glucose + 10% FBS, 15.4 µM
[22] = RPMI 5 mM glucose + 10% FBS, 46.1 µM
[23] = RPMI 5 mM glucose + 10% dialyzed FBS, 0.000781 µM
[24] = RPMI 5 mM glucose + 10% dialyzed FBS, 0.00234 µM
[25] = RPMI 5 mM glucose + 10% dialyzed FBS, 0.00702 µM
[26] = RPMI 5 mM glucose + 10% dialyzed FBS, 0.0211 µM
[27] = RPMI 5 mM glucose + 10% dialyzed FBS, 0.0632 µM
[28] = RPMI 5 mM glucose + 10% dialyzed FBS, 0.19 µM
[29] = RPMI 5 mM glucose + 10% dialyzed FBS, 0.569 µM
[30] = RPMI 5 mM glucose + 10% dialyzed FBS, 1.71 µM
[31] = RPMI 5 mM glucose + 10% dialyzed FBS, 5.12 µM
[32] = RPMI 5 mM glucose + 10% dialyzed FBS, 15.4 µM
[33] = RPMI 5 mM glucose + 10% dialyzed FBS, 46.1 µM

SMILES | cell viability [1] [%] | cell viability [2] [%] | cell viability [3] [%] | cell viability [4] [%] | cell viability [5] [%] | cell viability [6] [%] | cell viability [7] [%] | cell viability [8] [%] | cell viability [9] [%] | cell viability [10] [%] | cell viability [11] [%] | cell viability [12] [%] | cell viability [13] [%] | cell viability [14] [%] | cell viability [15] [%] | cell viability [16] [%] | cell viability [17] [%] | cell viability [18] [%] | cell viability [19] [%] | cell viability [20] [%] | cell viability [21] [%] | cell viability [22] [%] | cell viability [23] [%] | cell viability [24] [%] | cell viability [25] [%] | cell viability [26] [%] | cell viability [27] [%] | cell viability [28] [%] | cell viability [29] [%] | cell viability [30] [%] | cell viability [31] [%] | cell viability [32] [%] | cell viability [33] [%]
C[C@H]1[C@H](O)O[C@@H]2O[C@@]3(C)CC[C@H]4[C@H](C)CC[C@@H]1[C@@]24OO3 | 86 | 97.3 | 81 | 92.6 | 89.9 | 96 | 84.4 | 58.1 | 13.4 | 9.81 | 15.4 | 80.2 | 80.5 | 93.2 | 97.2 | 91.9 | 92.2 | 88 | 56.3 | 14.9 | 7.4 | 8.31 | 99.8 | 96 | 92 | 85.7 | 89 | 104 | 93.8 | 64.4 | 17.5 | 12.2 | 15.6
CC[C@H](NC(C)C)[C@H](O)c1ccc(O)c2[nH]c(=O)ccc12 | 113 | 103 | 108 | 97.6 | 108 | 113 | 124 | 107 | 108 | 96.8 | 104 | 91.2 | 95.8 | 88.7 | 95.7 | 84.6 | 107 | 101 | 94.5 | 97 | 84.1 | 90.6 | 84.7 | 109 | 104 | 94.4 | 102 | 107 | 96.9 | 95.3 | 94.6 | 87 | 91.2
CCCCCCCCOc1ccccc1C(=O)Nc1ccc(C(=O)OCC[N+](C)(CC)CC)cc1 | 101 | 104 | 103 | 104 | 110 | 99.5 | 85.8 | 100 | 78.1 | 88.1 | 28.7 | 84.6 | 94.7 | 93.2 | 83.8 | 93.4 | 86.4 | 90.1 | 83.7 | 82 | 81 | 21.7 | 92.8 | 93.5 | 96.6 | 90.1 | 98.3 | 91.9 | 83.7 | 84.4 | 73.9 | 88.8 | 31.8
NC/1=N/C(=O)N(C[C@@H](CO)OC[P](O)(O)=O)/C=C1 |  |  |  |  |  |  |  |  |  |  |  | 125 | 149 | 123 | 122 | 136 | 135 | 128 | 119 | 122 | 123 | 128 |  |  |  |  |  |  |  |  |  |  | 
COc1ccccc1OCCNCC(O)COc1cccc2[nH]c3ccccc3c12 (stereo not given) | 132 | 124 | 116 | 121 | 123 | 131 | 139 | 117 | 139 | 123 | 116 | 116 | 112 | 114 | 119 | 112 | 103 | 113 | 113 | 118 | 113 | 102 | 123 | 120 | 119 | 132 | 114 | 128 | 144 | 118 | 129 | 124 | 112
COC1=CC(=CC=C1)C2=CC=C(NC(=O)/C3=C(/CCC3)C(O)=O)C(=C2)F | 122 | 114 | 128 | 113 | 105 | 87.8 | 115 | 112 | 103 | 100 | 92.1 | 102 | 109 | 103 | 97.8 | 96.3 | 116 | 99.2 | 109 | 104 | 96 | 84.7 | 115 | 105 | 122 | 121 | 120 | 121 | 113 | 107 | 106 | 102 | 63.8
CN1CCN(Cc2ccc(NC(=O)Nc3ccc(Oc4cc(NC(=O)C5CC5)ncn4)cc3)cc2C(F)(F)F)CC1 | 104 | 104 | 120 | 129 | 143 | 141 | 12 | 4.6 | 3.07 | 2.49 | 0.956 | 110 | 125 | 118 | 125 | 138 | 149 | 22 | 8.28 | 6.02 | 4.38 | 2.32 | 106 | 122 | 114 | 125 | 146 | 161 | 18 | 6.64 | 5.97 | 3.84 | 2.43
OC(CCN1CCCCC1)(C2CC\3CC2\C=C3)C4=CC=CC=C4 (stereo not given) | 125 | 119 | 125 | 123 | 140 | 133 | 138 | 144 | 136 | 117 | 94.2 |  |  |  |  |  |  |  |  |  |  |  |  |  |  |  |  |  |  |  |  |  | 
